# Laboratory results: the supplement of paper PMC11061612
# Experiments:
# [1] = system: HEC-1 (Endometrial Carcinoma); assay: Bliss excess, mean over the matrix (fraction); higher = more synergy
# Outline: (§1)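 Bliss excess equals the observed combination effect minus the expected value EA + EB − EA·EB, where EA and EB are the effects of each agent alone. Combination Emax is the second-highest inhibition within the matrix. Inhibition was scaled from CellTiter-Glo 2.0 luminescence, with 0 set by vehicle wells and 1 by blank wells, after 72 hours of two-drug dosing of cells plated in 1536-well plates.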
# [2] = system: OAW-42 (Ovarian Carcinoma); assay: combination Emax (second highest fraction inhibited in the dose matrix, 72 h); higher = more inhibition; extreme values may be limits of the assay
# Outline: as §1
# [3] = system: LB996-RCC (Kidney Carcinoma); assay: as above
# Outline: as §1
# GB-1 (Glioblastoma) = assay: as above
# Outline: as §1
# WM278 (Melanoma) = assay: as above
# Outline: as §1
# LN-229 (Glioblastoma) = assay: as above
# Outline: as §1
# [4] = system: LXF-289 (Lung Adenocarcinoma); assay: as above
# Outline: as §1
# A2058 (Melanoma) = assay: as above
# Outline: as §1
# [5] = system: NCI-H446 (Small Cell Lung Carcinoma); assay: as above
# Outline: as §1
# [6] = system: SU-DHL-10 (B-Cell Non-Hodgkin's Lymphoma); assay: as above
# Outline: as §1
# [7] = system: VAL (B-Cell Non-Hodgkin's Lymphoma); assay: Bliss excess, mean over the matrix (fraction); higher = more synergy
# Outline: as §1
# [8] = system: OVMIU (Ovarian Carcinoma); assay: as above
# Outline: as §1
# [9] = system: CAL-62 (Thyroid Gland Carcinoma); assay: combination Emax (second highest fraction inhibited in the dose matrix, 72 h); higher = more inhibition; extreme values may be limits of the assay
# Outline: as §1
# [10] = system: PANC-03-27 (Pancreatic Carcinoma); assay: as above
# Outline: as §1
# [11] = system: SK-PN-DW (Other Solid Carcinomas); assay: as above
# Outline: as §1
# [12] = system: OPM-2 (Plasma Cell Myeloma); assay: as above
# Outline: as §1
# [13] = system: SHP-77 (Small Cell Lung Carcinoma); assay: as above
# Outline: as §1
# [14] = system: RKN (Other Solid Carcinomas); assay: as above
# Outline: as §1
# [15] = system: OVMIU (Ovarian Carcinoma); assay: as above
# Outline: as §1
# [16] = system: TE-8 (Esophageal Squamous Cell Carcinoma); assay: as above
# Outline: as §1
SMILES,Bliss excess [1],combination Emax [2],combination Emax [3],combination Emax (GB-1 (Glioblastoma)),combination Emax (WM278 (Melanoma)),combination Emax (LN-229 (Glioblastoma)),combination Emax [4],combination Emax (A2058 (Melanoma)),combination Emax [5],combination Emax [6],Bliss excess [7],Bliss excess [8],combination Emax [9],combination Emax [10],combination Emax [11],combination Emax [12],combination Emax [13],combination Emax [14],combination Emax [15],combination Emax [16]
"COc1nnc2ccc(N3CCC(c4ccc(OCCN5CCN(C)C(=O)[C@H]5C)cc4)CC3)nn12 [AZD5153] + CN(CC[C@H](CSC1=CC=CC=C1)NC2=C(C=C(C=C2)S(=O)(=O)NC(=O)C3=CC=C(C=C3)N4CCC(CC4)[C@H](C5=CC=CC=C5C6=CC=C(C=C6)Cl)O)S(=O)(=O)C(F)(F)F)CCO [AZD4320] (first compound max 1 µM, 7x7, partner max 1 µM)",0.0486,0.41,0.539,0.292,0.829,0.335,0.667,0.577,0.984,1,–,–,–,–,–,–,–,–,–,–
"C=CCn1c(=O)c2cnc(Nc3ccc(N4CCN(C)CC4)cc3)nc2n1-c1cccc(C(C)(C)O)n1 [AZD1775] + C1CN(CCC1(C(=O)N[C@@H](CCO)C2=CC=C(C=C2)Cl)N)C3=NC=NC4=C3C=CN4 [Capivasertib] (first compound max 3 µM, partner max 3 µM)",-0.0424,0.467,0.783,0.625,0.389,0.419,0.836,0.886,0.972,1,-0.0252,-0.0032,0.868,0.771,0.783,0.967,0.885,0.762,0.749,–
"C=CCn1c(=O)c2cnc(Nc3ccc(N4CCN(C)CC4)cc3)nc2n1-c1cccc(C(C)(C)O)n1 [AZD1775] + C[C@@H]1COCCN1C2=NC(=NC(=C2)C3(CC3)[S@](=N)(=O)C)C4=C5C=CNC5=NC=C4 [AZD6738] (first compound max 1 µM, partner max 10 µM)",0.0694,–,0.84,0.595,0.44,0.59,0.771,0.413,0.951,1,0.0239,-0.0635,0.928,0.939,0.955,0.893,0.827,0.35,0.731,0.932
"COc1cccc2c1C(=O)c1c(O)c3c(c(O)c1C2=O)C[C@@](O)(C(=O)CO)C[C@@H]3O[C@H]1C[C@H](N)[C@H](O)[C@H](C)O1 [Doxorubicin] + Cc1cc2ncnn2cc1Nc1ncc2c(n1)n(C1CCOCC1)c(=O)n2C [AZD7648] (first compound max 1 µM, 7x7, partner max 10 µM)",0.004,–,0.796,0.418,0.631,0.609,0.4,0.583,0.923,0.975,0.0974,-0.0193,0.817,0.686,0.814,0.845,0.562,0.693,0.861,0.774
"CCN(CCO)CCCOc1ccc2c(Nc3cc(CC(=O)Nc4cccc(F)c4)[nH]n3)ncnc2c1 [AZD2811] + C=CCn1c(=O)c2cnc(Nc3ccc(N4CCN(C)CC4)cc3)nc2n1-c1cccc(C(C)(C)O)n1 [AZD1775] (first compound max 1 µM, partner max 1 µM)",0.0124,–,0.842,0.332,0.171,0.218,0.573,0.15,0.87,1,-0.087,-0.088,0.787,0.899,0.899,0.809,0.415,0.281,0.463,0.781
"C[C@@H](c1ccc2nccn2c1)n1nnc2ncc(-c3cnn(C)c3)nc21 [Savolitinib] + CN(CC[C@H](CSC1=CC=CC=C1)NC2=C(C=C(C=C2)S(=O)(=O)NC(=O)C3=CC=C(C=C3)N4CCC(CC4)[C@H](C5=CC=CC=C5C6=CC=C(C=C6)Cl)O)S(=O)(=O)C(F)(F)F)CCO [AZD4320] (first compound max 1 µM, 7x7, partner max 1 µM)",-0.027,0.275,0.19,0.15,0.55,0.187,0.188,0.192,0.694,0.0854,–,–,–,–,–,–,–,–,–,–
"COc1cccc(OCCCN)c1-c1cc(Nc2cnc(C#N)cn2)n[nH]1 [Prexasertib] + Cc1cc2ncnn2cc1Nc1ncc2c(n1)n(C1CCOCC1)c(=O)n2C [AZD7648] (first compound max 1 µM, 7x7, partner max 10 µM)",0.0762,–,0.776,0.458,0.596,0.725,0.724,0.444,0.97,0.999,-0.0204,-0.0211,0.776,0.898,0.931,0.912,0.862,0.658,0.624,0.937
"C=CCn1c(=O)c2cnc(Nc3ccc(N4CCN(C)CC4)cc3)nc2n1-c1cccc(C(C)(C)O)n1 [AZD1775] + O=C(c1cc(Cc2n[nH]c(=O)c3ccccc23)ccc1F)N1CCN(C(=O)C2CC2)CC1 [Olaparib] (first compound max 1 µM, partner max 10 µM)",0.0039,–,0.845,0.318,0.209,0.258,0.355,0.284,0.778,0.962,-0.0411,-0.0135,0.796,0.928,0.913,0.864,0.443,0.355,0.569,0.865
"CN(C)CCCOc1ccc(-c2ccc3ncc4c(c3c2)n(C2CCOCC2)c(=O)n4C)cn1 [AZD0156] + O=C(c1cc(Cc2n[nH]c(=O)c3ccccc23)ccc1F)N1CCN(C(=O)C2CC2)CC1 [Olaparib] (first compound max 3 µM, partner max 3 µM)",-0.0173,0.282,0.38,0.238,0.209,0.107,0.4,0.37,0.362,0.342,0.141,0.06,0.342,0.225,0.289,0.231,0.209,0.214,0.347,–
"CCN(CCO)CCCOc1ccc2c(Nc3cc(CC(=O)Nc4cccc(F)c4)[nH]n3)ncnc2c1 [AZD2811] + C[C@@H]1COCCN1C2=NC(=NC(=C2)C3(CC3)[S@](=N)(=O)C)C4=C5C=CNC5=NC=C4 [AZD6738] (first compound max 1 µM, 7x7, partner max 10 µM)",-0.0175,–,0.602,0.366,0.332,0.562,0.516,0.246,0.869,0.985,-0.0336,-0.0446,0.741,0.837,0.947,0.71,0.496,0.206,0.457,0.781
"Cc1cc2ncnn2cc1Nc1ncc2c(n1)n(C1CCOCC1)c(=O)n2C [AZD7648] + CCN(CCO)CCCOc1ccc2c(Nc3cc(CC(=O)Nc4cccc(F)c4)[nH]n3)ncnc2c1 [AZD2811] (first compound max 10 µM, 7x7, partner max 1 µM)",-0.0269,–,0.363,0.166,0.157,0.199,0.395,0.247,0.834,0.899,-0.0799,-0.0159,0.368,0.334,0.696,0.605,0.258,0.211,0.444,0.354
"CCc1c2c(nc3ccc(O)cc13)-c1cc3c(c(=O)n1C2)COC(=O)[C@]3(O)CC [SN-38] + CN(C)CCCOc1ccc(-c2ccc3ncc4c(c3c2)n(C2CCOCC2)c(=O)n4C)cn1 [AZD0156] (first compound max 0.3 µM, 7x7, partner max 1 µM)",-0.0374,–,0.898,0.735,0.635,0.283,0.599,0.401,0.818,0.986,0,-0.0047,0.872,0.773,0.92,0.772,0.48,0.631,0.32,0.69
"CN(C)CCCOc1ccc(-c2ccc3ncc4c(c3c2)n(C2CCOCC2)c(=O)n4C)cn1 [AZD0156] + CCN(CCO)CCCOc1ccc2c(Nc3cc(CC(=O)Nc4cccc(F)c4)[nH]n3)ncnc2c1 [AZD2811] (first compound max 1 µM, 7x7, partner max 1 µM)",-0.0152,–,0.362,0.0845,0.0859,0.123,0.507,0.0924,0.838,0.835,-0.0341,-0.0411,0.182,0.2,0.605,0.436,0.237,0.132,0.144,0.196
"CS(=O)(=O)CCNCc1ccc(-c2ccc3ncnc(Nc4ccc(OCc5cccc(F)c5)c(Cl)c4)c3c2)o1 [Lapatinib] + NC1(c2ccc(-c3nc4ccn5c(=O)[nH]nc5c4cc3-c3ccccc3)cc2)CCC1 [MK-2206] (first compound max 10 µM, 7x7, partner max 10 µM)",–,0.819,–,–,–,0.207,–,0.982,0.962,–,-0.0147,0.0659,0.721,0.76,0.933,0.972,0.633,0.346,0.891,0.52
